Patent US20250092052A1, “HETEROARYL DERIVATIVE COMPOUNDS, AND USES THEREOF” (VORONOI INC., priority 2023, published 2025)

What was measured:
Myt1-KD = Myt1-KD (Homo sapiens (Human), UniProt Q99640); assay: Thermal Shift Assay, compound binding to Myt1-KD; details: 2 μM protein, 100 μM compound, Tm of compound minus Tm of DMSO
Procedure: The degree of compound binding to Myt1-KD was tested using a Thermal Shift Assay. Each protein was diluted to a concentration of 2 μM in 50 mM Tris (pH 7.5) with 100 μM of the compound. SYPRO™ Orange dye was added to the solution, and the plate was transferred to a QuantStudio3 Real-Time PCR System (Applied Biosystems by Thermo Fisher Scientific). […] The degree of protein melting in the presence of the compound compared to DMSO was calculated according to the following Equation 1. ΔTm=Tm (Temperature of Example compound)−Tm (Temperature of DMSO) [Equation 1]

human PKMYT1 enzyme = human PKMYT1 enzyme (Homo sapiens (Human), UniProt Q99640); assay: Inhibitory activity against PKMYT1 kinase (ADP-Glo kinase assay); format: biochemical; details: purified human PKMYT1, ATP, CDK1 substrate, 25° C., 1 hour
Sequence of human PKMYT1 enzyme (Q99640 whole entry): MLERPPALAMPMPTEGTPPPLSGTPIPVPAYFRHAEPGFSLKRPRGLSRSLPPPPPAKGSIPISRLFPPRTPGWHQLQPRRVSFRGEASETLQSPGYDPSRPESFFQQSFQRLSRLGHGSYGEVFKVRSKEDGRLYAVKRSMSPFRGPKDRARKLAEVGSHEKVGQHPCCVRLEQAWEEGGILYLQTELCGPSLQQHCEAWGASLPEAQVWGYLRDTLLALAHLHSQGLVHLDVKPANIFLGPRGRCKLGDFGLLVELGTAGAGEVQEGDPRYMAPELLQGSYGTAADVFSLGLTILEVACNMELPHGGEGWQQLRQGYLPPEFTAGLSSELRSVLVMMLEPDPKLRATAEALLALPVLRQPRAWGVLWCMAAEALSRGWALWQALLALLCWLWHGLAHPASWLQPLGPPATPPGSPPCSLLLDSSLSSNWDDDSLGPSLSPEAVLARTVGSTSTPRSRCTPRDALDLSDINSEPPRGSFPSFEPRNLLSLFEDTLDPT
Procedure: To evaluate the inhibitory activity of the compounds synthesized according to the above Examples against PKMYT1 kinase, the Example compounds were reacted with purified human PKMYT1 enzyme and assessed using the following method.
The reaction buffer was used as a composition of 200 mM Tris-HCl pH 7.4, 100 mM MgCl2, 0.5 mg/mL BSA, 0.25 mM DTT, and the reactions of all the tests were carried out on the reaction buffer.
The compound was diluted in 12 steps using a serial dilution method from a 10 mM DMSO stock, and the enzyme activity was measured at a final compound concentration of 10˜0.00005645 μM. During the test, the enzyme activity was confirmed using in vitro ADP-Glo™kinase assay (Promega) after reacting with the proper concentration of PKMYT1 enzyme, purified ATP, and enzyme substrate (CDK1) at 25° C. for 1 hour. At a ratio of 2:2:1, an enzyme-active reaction solution, an ADP-Glo reaction solution, and an enzyme-active detection solution were reacted to measure the inhibition of the enzyme's activity with luminescence. Based on the […] of the enzyme activity of the solvent control that was not treated with the compound, the degree of enzyme activity inhibition was calculated according to the treatment concentration of each compound, and the concentration of each compound that inhibits 50% of enzyme activity was determined as IC50 (nM) value and the value was obtained by using GraphPad Prism 8.3.0 (GraphPad software Inc., San Diego) software.

Sequence of Myt1-KD (Q99640 110-359): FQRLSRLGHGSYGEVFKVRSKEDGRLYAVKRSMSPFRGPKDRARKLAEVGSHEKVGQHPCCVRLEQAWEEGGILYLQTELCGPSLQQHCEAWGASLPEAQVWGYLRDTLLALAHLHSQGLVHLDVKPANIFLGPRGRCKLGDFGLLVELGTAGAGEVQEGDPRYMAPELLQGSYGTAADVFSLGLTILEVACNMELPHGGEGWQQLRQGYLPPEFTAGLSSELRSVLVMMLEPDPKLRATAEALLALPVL

Row | ΔTm at 100 µM (Myt1-KD) [°C] | IC50 (human PKMYT1 enzyme) [nM] | SMILES
1 | ≥ 5 | ≤ 200 | Cc1ccc(O)c(C)c1-n1c(N)c(C(=O)c2cc3cc(CN4CCOCC4)ccc3[nH]2)c2nccnc21 (atropisomer, axis not shown) [Example 19, (S)-(6-amino-5-(3-hydroxy-2,6-dimethylphenyl)-5H-pyrrolo[2,3-b]pyrazin-7-yl)(5-(morpholinomethyl)-1H-indol-2-yl)methanone]
2 | ≤ 5 | ≤ 200 | Cc1ccc(O)c(C)c1-n1c(N)c(C(=O)c2ccc[nH]2)c2nccnc21 [Example 23, (6-amino-5-(3-hydroxy-2,6-dimethylphenyl)-5H-pyrrolo[2,3-b]pyrazin-7-yl)(1H-pyrrol-2-yl)methanone]
3 | ≥ 5 | 200 to 500 | Cc1ccc(O)c(C)c1-n1c(N)c(C(=O)c2cc3ccccc3[nH]2)c2nc(C)c(C)nc21 (atropisomer, axis not shown) [Example 9, (S)-(6-amino-5-(3-hydroxy-2,6-dimethylphenyl)-2,3-dimethyl-5H-pyrrolo[2,3-b]pyrazin-7-yl)(1H-indol-2-yl)methanone]
4 | ≥ 5 | ≤ 200 | Cc1ccc(O)c(C)c1-n1c(N)c(C(=O)c2cc3cnc(N4CCOCC4)cc3[nH]2)c2nc(C)c(C)nc21 (atropisomer, axis not shown) [Example 15, (S)-(6-amino-5-(3-hydroxy-2,6-dimethylphenyl)-2,3-dimethyl-5H-pyrrolo[2,3-b]pyrazin-7-yl)(6-morpholino-1H-pyrrolo[3,2-c]pyridin-2-yl)methanone]
